Series [1] addresses T1, full-length beta-Catenin (Uniprot ID P35222) (Homo sapiens, UniProt P35222).
T1 construct: 10 nM full-length beta-Catenin (Uniprot ID P35222)
T1 sequence (P35222 1-781): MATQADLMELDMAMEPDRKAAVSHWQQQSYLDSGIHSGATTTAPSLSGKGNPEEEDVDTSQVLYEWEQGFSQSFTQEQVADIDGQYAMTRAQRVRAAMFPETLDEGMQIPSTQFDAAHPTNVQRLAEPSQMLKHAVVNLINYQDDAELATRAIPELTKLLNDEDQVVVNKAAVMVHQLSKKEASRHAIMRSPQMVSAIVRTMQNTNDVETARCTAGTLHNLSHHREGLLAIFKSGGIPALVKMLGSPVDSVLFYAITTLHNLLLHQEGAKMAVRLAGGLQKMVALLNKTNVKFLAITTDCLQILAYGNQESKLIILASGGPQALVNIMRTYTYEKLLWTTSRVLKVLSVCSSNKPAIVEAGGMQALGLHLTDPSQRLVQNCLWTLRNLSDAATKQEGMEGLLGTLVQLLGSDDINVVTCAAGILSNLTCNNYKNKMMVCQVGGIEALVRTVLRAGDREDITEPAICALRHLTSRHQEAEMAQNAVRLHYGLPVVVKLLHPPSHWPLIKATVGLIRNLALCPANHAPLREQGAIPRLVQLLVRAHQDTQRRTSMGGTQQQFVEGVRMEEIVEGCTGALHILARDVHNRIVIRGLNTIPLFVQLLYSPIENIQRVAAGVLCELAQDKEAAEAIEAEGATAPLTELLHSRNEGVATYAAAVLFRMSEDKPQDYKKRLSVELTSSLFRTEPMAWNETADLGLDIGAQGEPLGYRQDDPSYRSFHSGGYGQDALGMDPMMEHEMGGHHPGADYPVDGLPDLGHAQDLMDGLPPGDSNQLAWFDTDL
As to the kind of experiment: Fluorescence polarization IC50 (beta-catenin / 5FAM-TCF4 10-53 competition). The format is binding. (In general: In fluorescence polarisation assays a small probe gives low polarisation when free and higher when bound to something large.)

Series [2] in a line: Solubility in PBS. In kind it is physicochemical. The method, boiled down: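 PBS sample ultracentrifuged; supernatant run on HPLC vs. 50 μM peptide in DMSO standard. Solubility = (PBS peak area / DMSO peak area) × 50 uM.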
Series [3] is described as follows: CHI Log D procedure. To be noted: for CHI Log D: pH 7.4; for chromatographic logD: pH 7.4, CHI Log D. The format is physicochemical.
Setting [4] is: fluorescence polarization, beta-catenin, read-out: FP EC50.

≈ marks a conversion by molar mass, not a printed value. Like-named read-outs stand apart in the source and are kept apart here.

Results on 5 compounds are retold here after patent publication US20240116985A1, “STAPLED PEPTIDES AND METHODS THEREOF” (priority 2020, published 2024).

In general, Solubility refers to the dissolved amount per volume that the medium holds. For `CC(=O)N1CCC[C@]12CC=CCCCC1(CCCC=CCCCOC(=O)N3CC[C@@](C(=O)N[C@@H](Cc4ccsc4)C(=O)N[C@@H](Cc4csc5ccccc45)C(=O)N[C@@H](CO)C(N)=O)(C3)NC(=O)[C@H](CO)NC(=O)[C@H](Cc3ccccc3)NC(=O)[C@H](C)NC(=O)[C@H](C)NC(=O)[C@H](Cc3cccc(C(=O)O)c3)NC(=O)[C@H](CC(=O)O)NC1=O)NC(=O)[C@H](CC(C)(C)C)NC(=O)[C@H](CC(=O)O)NC2=O` (stereo partly drawn) [I-985, Ac-PL3-Asp-Npg-B5-Asp-3COOHF-Ala-Ala-Phe-Ser-PyrS2-3Thi-BztA-Ser-NH2], the IC50 in series [1] (setting [4]) was 301 nM; in series [1] (read-out: beta-Catenin FP IC50), 431 nM. Further, the “Solubility” value in series [2] came to 47 µM (≈ 90.5 µg/mL). In addition, in series [3], the “CHI Log D” value turned out to be 1.87.

For `CC(=O)N1CCC[C@]12CC=CCCCC1(CCCC=CCCCOC(=O)N3CC[C@@](C(=O)N[C@@H](Cc4ccsc4)C(=O)N[C@@H](Cc4csc5ccccc45)C(=O)N[C@@H](CO)C(N)=O)(C3)NC(=O)[C@H](CC(C)C)NC(=O)[C@H](Cc3ccccc3)NC(=O)[C@H](C)NC(=O)[C@H](C)NC(=O)[C@H](Cc3cccc(C(=O)O)c3)NC(=O)[C@H](CC(=O)O)NC1=O)NC(=O)[C@H](CC(C)(C)C)NC(=O)[C@H](CC(=O)O)NC2=O` (stereo partly drawn) [I-986, Ac-PL3-Asp-Npg-B5-Asp-3COOHF-Ala-Ala-Phe-Leu-PyrS2-3Thi-BztA-Ser-NH2], the IC50 in series [1] (setting [4]) and in series [1] (read-out: beta-Catenin FP IC50) was 136 nM throughout. In series [2], the “Solubility” value was found to be 27 µM (≈ 52.7 µg/mL). Further, the “CHI Log D” value in series [3] is listed as 1.855.

Consider `CC(=O)N1CCC[C@]12CC=CCCCC1(CCCC=CCCCOC(=O)N3CC[C@@](C(=O)N[C@@H](Cc4ccsc4)C(=O)N[C@@H](Cc4csc5ccccc45)C(=O)N[C@@H](CO)C(N)=O)(C3)NC(=O)[C@H](CC(C)C)NC(=O)[C@H](Cc3ccccc3)NC(=O)[C@H](C)NC(=O)[C@H](C)NC(=O)[C@H](Cc3cccc(C(=O)O)c3)NC(=O)[C@H](CC(=O)O)NC1=O)NC(=O)[C@H](CC(C)(C)C)NC(=O)[C@H](CC(=O)O)NC2=O` (stereo partly drawn) [I-987, Ac-PL3-Asp-Npg-B5-Asp-3COOHF-Ala-Ala-Phe-Leu-PyrS2-3Thi-BztA-Ser-NH2], for which the IC50 in series [1] (setting [4]) and in series [1] (read-out: beta-Catenin FP IC50) was 112 nM throughout. Besides, the “Solubility” value in series [2] was 10 µM (≈ 19.5 µg/mL). Moreover, the “CHI Log D” value in series [3] is given as 2.115.

For orientation: chromatographic logD means lipophilicity estimated from chromatographic retention. Read a high chromatographic logD as a more lipophilic compound. `CC(=O)N1CCC[C@]12CC=CCCCC1(CCCC=CCCCOC(=O)N3CC[C@@](C(=O)N[C@@H](Cc4ccc(O)cc4)C(=O)N[C@@H](Cc4csc5ccccc45)C(=O)N[C@@H](CCC(N)=O)C(N)=O)(C3)NC(=O)[C@H](Cc3ccccc3)NC(=O)[C@H](Cc3ccccc3)NC(=O)[C@H](C)NC(=O)[C@H](C)NC(=O)[C@H](CN(CC(=O)O)CC(F)(F)F)NC(=O)[C@H](CC(=O)O)NC1=O)NC(=O)[C@H](CC(C)(C)C)NC(=O)[C@H](CC(=O)O)NC2=O` (stereo partly drawn) [I-989, Ac-PL3-Asp-Npg-B5-Asp-TfeGA-Ala-Ala-Phe-Phe-PyrS2-Tyr-BztA-Gln-NH2]: in series [1] (read-out: beta-Catenin FP IC50), the IC50 is 87 nM. The “Solubility” value in series [2] was 10 µM (≈ 20.7 µg/mL). In series [3], the chromatographic logD came out at 2.1.

Take `CC(=O)N1CCC[C@]12CC=CCCCC1(CCCC=CCCCOC(=O)N3CC[C@@](C(=O)N[C@@H](Cc4ccccc4Cl)C(=O)N[C@@H](Cc4csc5ccccc45)C(=O)N[C@H](C(N)=O)[C@@H](C)O)(C3)NC(=O)[C@H](Cc3ccccc3)NC(=O)[C@H](Cc3ccccc3)NC(=O)[C@H](C)NC(=O)[C@H](C)NC(=O)[C@H](CN(CC(=O)O)CC(F)(F)F)NC(=O)[C@H](CC(=O)O)NC1=O)NC(=O)[C@H](CC(C)(C)C)NC(=O)[C@H](CC(=O)O)NC2=O` (stereo partly drawn) [I-991, Ac-PL3-Asp-Npg-B5-Asp-TfeGA-Ala-Ala-Phe-Phe-PyrS2-2C1F-BztA-Thr-NH2]: the IC50 in series [1] (read-out: beta-Catenin FP IC50) worked out at 51 nM. Moreover, in series [2], the “Solubility” value is 10 µM (≈ 20.6 µg/mL). In series [3], this compound showed a chromatographic logD of 2.7.
